Measured values published in US20110104301A1, “METHODS OF REDUCING PAIN AND INFLAMMATION” (Georgetown University, A Congressionally Chartered …, priority 2008, published 2011).
“Also recorded” adds a separate entry of the source.

Key:
[1] = rat at 37° C.; cited from earlier work
TRPA1 [2] = biological target: T1, TRPA1 (Rattus norvegicus, UniProt Q6RI86); assay: Single-channel recordings of TRPA1 (outside-out / cell-attached patches); format: cell-based; conditions: for TRPA1 single-channel conductance in presence of VGA: 0.23 mM isoflurane, 0.9 mM desflurane, reduced from ≈110 pS; for Single TRPA1 channel activity: cell-free patches
T1 construct: expressed in transfected cells; host or cells: HEK 293F
T1 sequence (Q6RI86 whole entry): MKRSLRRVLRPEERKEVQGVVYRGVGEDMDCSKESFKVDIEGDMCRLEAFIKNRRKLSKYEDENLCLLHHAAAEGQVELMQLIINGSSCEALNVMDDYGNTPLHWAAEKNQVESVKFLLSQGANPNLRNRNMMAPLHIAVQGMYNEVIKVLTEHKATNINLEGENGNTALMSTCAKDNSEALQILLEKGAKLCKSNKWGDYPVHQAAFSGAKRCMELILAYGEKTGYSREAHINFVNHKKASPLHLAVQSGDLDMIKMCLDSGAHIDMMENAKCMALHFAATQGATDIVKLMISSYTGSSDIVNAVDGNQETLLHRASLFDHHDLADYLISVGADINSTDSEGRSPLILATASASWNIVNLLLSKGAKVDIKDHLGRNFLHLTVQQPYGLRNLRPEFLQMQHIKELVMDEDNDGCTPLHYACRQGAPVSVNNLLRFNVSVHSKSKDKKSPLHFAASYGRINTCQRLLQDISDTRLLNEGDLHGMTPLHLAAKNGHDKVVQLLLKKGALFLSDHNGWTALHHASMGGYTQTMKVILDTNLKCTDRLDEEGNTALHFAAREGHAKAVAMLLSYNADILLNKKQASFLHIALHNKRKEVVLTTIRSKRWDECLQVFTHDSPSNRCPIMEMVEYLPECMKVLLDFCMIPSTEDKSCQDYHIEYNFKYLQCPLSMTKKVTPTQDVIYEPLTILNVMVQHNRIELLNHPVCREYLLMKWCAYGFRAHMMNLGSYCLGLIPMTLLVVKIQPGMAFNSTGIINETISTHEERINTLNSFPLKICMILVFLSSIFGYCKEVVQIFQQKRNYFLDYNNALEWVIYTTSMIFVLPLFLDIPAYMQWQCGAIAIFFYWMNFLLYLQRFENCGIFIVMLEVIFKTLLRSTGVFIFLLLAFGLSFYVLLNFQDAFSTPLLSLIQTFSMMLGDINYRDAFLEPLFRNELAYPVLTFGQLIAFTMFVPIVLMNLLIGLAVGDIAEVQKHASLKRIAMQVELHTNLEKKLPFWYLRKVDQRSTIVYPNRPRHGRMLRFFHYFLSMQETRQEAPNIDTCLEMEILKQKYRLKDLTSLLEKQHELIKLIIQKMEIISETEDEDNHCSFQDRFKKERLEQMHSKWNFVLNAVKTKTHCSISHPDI
Experimental: (§1) Electrophysiology. HEK 293F cells were transfected with rat TRPV1, TRPA1, and TRPM8 (gift of David Julius, University of California, San Francisco). Dorsal root ganglia were cultured from adult mice (C57B16/J wild type and TRPV1-null, and mixed B6/129 background TRPA1-null) in Neurobasal +2% B-27 medium (Invitrogen), 0.1% L-glutamine and 1% penicillin/streptomycin. Whole-cell and single-channel patch-clamp recordings were performed by using an EPC8 amplifier (HEKA Electronics). For whole-cell and excised patch recordings the bath solution contained 140 mMNaCl, 4 mMKCl, 1 mMMgCl2, 1.2 mMCaCl2, 10 mMHepes, 10 mM glucose, pH 7.3. For cell-attached experiments, NaCl was replaced with KCl in the bath solution. The pipette solution contained 140 mM NaCl or KCl, 10 mM Hepes, 5 mM EGTA, pH 7.3. For neuronal recording NaCl was replaced with K-gluconate (plus 1 mMATP, 0.2 mM GTP). Solutions were applied via a gravity-fed system. Separate outlets were used to apply capsaicin and AITC solutions to avoid contamination. Voltage-dependent properties were measured as described in Matt and Ahern, J. Physiol. 585:469-482 (2007). Current-voltage measurements comprised a 200-ms ramp from −150 mV to +200 mV. The baseline currents under control conditions were subtracted. For cell-attached experiments, peak amplitudes were measured from all-points histograms, and open probability was measured as NPo>750 ms. Defolliculated Xenopus laevis oocytes were injected with ≈10 ng of hTRPA1 (gift of Ardem Patapoutian, The Scripps Research Institute, La Jolla, Calif.). Oocytes were placed in a Perspex chamber and continuously superfused (5 ml min^−1) with Ca^2+-free solution containing 100 mM NaCl, 2.5 mM KCl, 5 mM Hepes, 1 mM MgC12 and titrated to pH 7.3 with ˜5 mM NaOH.

hTRPA1 = biological target: T2, hTRPA1 (Homo sapiens, UniProt O75762); assay: AITC-evoked currents in TRPA1-expressing Xenopus oocytes; format: cell-based; conditions: VGAs 0.5-0.65 mM, AITC 10 μM
T2 construct: expressed in transfected cells; host or cells: Xenopus laevis oocytes (injected)
T2 sequence (O75762 whole entry): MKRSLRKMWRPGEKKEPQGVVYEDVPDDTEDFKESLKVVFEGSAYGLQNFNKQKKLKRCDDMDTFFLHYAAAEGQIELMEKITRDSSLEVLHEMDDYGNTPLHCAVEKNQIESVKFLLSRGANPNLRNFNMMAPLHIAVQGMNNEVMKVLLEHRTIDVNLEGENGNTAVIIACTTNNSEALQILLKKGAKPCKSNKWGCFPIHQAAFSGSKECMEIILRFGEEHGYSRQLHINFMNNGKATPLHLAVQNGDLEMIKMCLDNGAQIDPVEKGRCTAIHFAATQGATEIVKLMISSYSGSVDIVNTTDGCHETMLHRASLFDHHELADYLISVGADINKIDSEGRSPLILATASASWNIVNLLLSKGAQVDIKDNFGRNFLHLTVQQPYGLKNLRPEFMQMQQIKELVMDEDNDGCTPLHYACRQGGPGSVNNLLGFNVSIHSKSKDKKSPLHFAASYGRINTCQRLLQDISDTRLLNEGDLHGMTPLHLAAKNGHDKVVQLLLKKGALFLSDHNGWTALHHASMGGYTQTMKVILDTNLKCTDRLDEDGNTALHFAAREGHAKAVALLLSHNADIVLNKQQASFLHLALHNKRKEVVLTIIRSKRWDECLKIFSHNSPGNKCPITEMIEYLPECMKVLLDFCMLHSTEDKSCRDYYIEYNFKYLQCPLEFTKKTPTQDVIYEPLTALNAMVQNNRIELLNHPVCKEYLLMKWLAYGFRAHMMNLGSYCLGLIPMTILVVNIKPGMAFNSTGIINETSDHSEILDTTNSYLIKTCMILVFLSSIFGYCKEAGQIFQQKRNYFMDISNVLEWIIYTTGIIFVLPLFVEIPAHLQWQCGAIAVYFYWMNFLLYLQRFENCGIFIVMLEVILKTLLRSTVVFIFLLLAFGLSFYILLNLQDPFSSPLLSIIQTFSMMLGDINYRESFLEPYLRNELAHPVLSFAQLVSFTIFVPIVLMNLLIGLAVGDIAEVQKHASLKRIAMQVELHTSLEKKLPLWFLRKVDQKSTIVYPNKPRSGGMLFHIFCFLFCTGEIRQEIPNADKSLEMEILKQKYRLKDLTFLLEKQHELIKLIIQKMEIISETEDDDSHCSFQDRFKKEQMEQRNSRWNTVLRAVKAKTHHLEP
Experimental: as §1

TRPV1 = TRPV1 (Rattus norvegicus, UniProt O35433); assay: Voltage-clamp of TRPV1-expressing Xenopus oocytes (capsaicin, protons, heat); format: cell-based; conditions: for Temperature threshold of TRPV1 heat activation: control ~46° C.
Sequence of TRPV1 (O35433 whole entry, the tested form may be a part): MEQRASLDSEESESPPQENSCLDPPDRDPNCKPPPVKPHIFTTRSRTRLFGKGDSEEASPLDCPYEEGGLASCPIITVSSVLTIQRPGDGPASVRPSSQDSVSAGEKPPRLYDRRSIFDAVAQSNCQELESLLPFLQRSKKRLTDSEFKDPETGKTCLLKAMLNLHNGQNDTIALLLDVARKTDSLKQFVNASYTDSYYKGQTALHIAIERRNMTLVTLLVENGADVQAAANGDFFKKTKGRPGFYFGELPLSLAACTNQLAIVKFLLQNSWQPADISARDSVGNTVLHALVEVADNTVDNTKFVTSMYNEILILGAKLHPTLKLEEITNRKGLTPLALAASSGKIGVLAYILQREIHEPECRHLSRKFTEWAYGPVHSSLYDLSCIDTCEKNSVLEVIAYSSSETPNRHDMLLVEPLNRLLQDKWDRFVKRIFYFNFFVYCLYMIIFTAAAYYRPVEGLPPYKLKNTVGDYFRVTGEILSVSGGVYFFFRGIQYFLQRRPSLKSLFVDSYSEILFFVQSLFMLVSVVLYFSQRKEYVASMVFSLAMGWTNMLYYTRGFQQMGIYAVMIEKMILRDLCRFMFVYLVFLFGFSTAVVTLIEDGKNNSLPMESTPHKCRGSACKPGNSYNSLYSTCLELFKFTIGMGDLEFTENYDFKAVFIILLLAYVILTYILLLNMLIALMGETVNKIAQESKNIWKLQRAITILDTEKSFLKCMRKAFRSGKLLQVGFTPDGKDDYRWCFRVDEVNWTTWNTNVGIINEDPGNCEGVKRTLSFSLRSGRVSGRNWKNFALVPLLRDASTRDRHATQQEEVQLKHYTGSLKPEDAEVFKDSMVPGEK
Experimental: Oocyte electrophysiology. […] Oocytes were placed in a Perspex chamber and continuously superfused (5 ml min-1) with Ca2+-free solution containing (in mM): 100 NaCl, 2.5 KCl, 5 HEPES, 1 MgCl2 and titrated to pH 7.3 with ˜5 mM NaOH. For solutions <pH 6.0, HEPES was replaced with either 5 mM MES or 5 mM sodium citrate. Oocytes were routinely voltage-clamped at −60 mV at 22-23° C. For heat activation, bath temperature was raised from ˜22-50° C. over ˜100 s using an in-line solution heater (Warner Instruments). The temperature was continuously monitored with a probe placed within 2 mm of the oocyte. The temperature-activation threshold was defined as a 20% increase in current above baseline.
Volatile general anesthetics. Saturated stock solutions of volatile general anesthetics (VGAs) were prepared in gas-tight bottles by dissolving excess anesthetic agents in bath solutions and stirring vigorously overnight. From these stock solutions fresh dilutions were made up every 40-60 minutes. Concentrations of volatile anesthetics in the bath solutions were verified using a modified head-space gas chromatography method. The gas chromatograph (Carlo Erba, Milan, Italy) was equipped with a flame ionization detector (FID) and mass spectrometer. The carrier gas was hydrogen (60 kPa column head pressure) and the fused silica capillary column, coated with polysiloxane SE-30, was 25 m×0.25 mm. Injector temperature was 250° C., FID temperature was 300° C. and the oven was maintained at 90° C. Standards were prepared from a mixture of halothane, isoflurane, and sevoflurane dissolved in acetonitrile with enflurane as an internal standard.

mouse TRPA1 = biological target: T3, mouse TRPA1 (Mus musculus, UniProt Q8BLA8); assay: Current-voltage recordings in mTRPA1-expressing HEK293 cells; format: cell-based; conditions: desflurane 1 mM
T3 construct: expressed in transfected cells; host or cells: HEK293
T3 sequence (Q8BLA8 whole entry): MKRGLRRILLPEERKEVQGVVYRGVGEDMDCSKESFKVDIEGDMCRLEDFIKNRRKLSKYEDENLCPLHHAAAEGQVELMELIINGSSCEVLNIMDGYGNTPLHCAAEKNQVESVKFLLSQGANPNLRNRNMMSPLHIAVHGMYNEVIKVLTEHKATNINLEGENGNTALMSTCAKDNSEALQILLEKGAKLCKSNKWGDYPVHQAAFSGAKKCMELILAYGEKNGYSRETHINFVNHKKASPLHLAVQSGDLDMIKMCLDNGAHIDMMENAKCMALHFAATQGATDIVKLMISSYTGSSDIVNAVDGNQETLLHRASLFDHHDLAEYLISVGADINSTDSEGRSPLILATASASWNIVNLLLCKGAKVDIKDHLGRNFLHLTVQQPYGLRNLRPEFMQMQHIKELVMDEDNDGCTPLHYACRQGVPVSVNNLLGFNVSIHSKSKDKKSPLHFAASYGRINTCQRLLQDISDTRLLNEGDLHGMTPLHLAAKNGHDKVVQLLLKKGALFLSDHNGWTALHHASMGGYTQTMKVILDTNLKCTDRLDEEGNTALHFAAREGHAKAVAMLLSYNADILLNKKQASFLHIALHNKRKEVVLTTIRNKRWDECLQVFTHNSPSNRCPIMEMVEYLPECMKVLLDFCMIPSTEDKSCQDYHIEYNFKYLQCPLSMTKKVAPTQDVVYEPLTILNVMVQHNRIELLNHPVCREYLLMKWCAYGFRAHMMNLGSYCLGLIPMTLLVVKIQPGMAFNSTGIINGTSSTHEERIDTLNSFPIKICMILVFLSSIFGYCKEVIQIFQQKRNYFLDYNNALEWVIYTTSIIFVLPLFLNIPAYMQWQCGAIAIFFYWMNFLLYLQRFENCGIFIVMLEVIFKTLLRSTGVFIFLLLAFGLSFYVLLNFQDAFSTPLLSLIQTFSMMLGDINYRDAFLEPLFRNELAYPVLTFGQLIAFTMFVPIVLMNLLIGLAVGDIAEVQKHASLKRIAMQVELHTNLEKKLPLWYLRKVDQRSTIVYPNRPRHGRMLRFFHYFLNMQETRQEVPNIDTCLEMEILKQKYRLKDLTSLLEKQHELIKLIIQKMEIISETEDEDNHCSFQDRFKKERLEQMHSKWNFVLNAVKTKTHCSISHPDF
Experimental: A genetic approach was used to identify critical sites in TRPA1 and TRPV1 required for activation by general anesthetics. Drosophila TRPA1 is insensitive to desflurane (at concentrations up to 3 mM). […] Note that dTRPA1 is insensitive to AITC. Next, several chimeric TRP proteins containing dTRPA1 (unresponsive to desflurane) and mTRPA1 were tested. For the dTRPA1-mN chimera, the mouse 720 amino acid N-terminus was exchanged for the drosophila N-terminus. The N-terminal domain contains essential binding sites for AITC, and therefore studying this chimera tests an important role for the N-terminus in anesthetic-sensing. […] The mTRPA1-dTM5 construct was then studied, which is the mouse protein containing the fifth transmembrane domain of the drosophila protein.

TRPA1 [3] = biological target: T1, TRPA1; assay: Whole-cell patch-clamp of TRPA1-expressing HEK293 cells; format: cell-based; conditions: for Activation of TRPA1 currents by VGAs: 0.9 mM, voltage-clamped HEK293 cells
Experimental: Electrophysiology. […] Whole-cell and single-channel patch-clamp recordings were performed by using an EPC8 amplifier (HEKA Electronics). For whole-cell and excised patch recordings the bath solution contained 140 mMNaCl, 4 mMKCl, 1 mMMgCl2, 1.2 mMCaCl2, 10 mMHepes, 10 mM glucose, pH 7.3. For cell-attached experiments, NaCl was replaced with KCl in the bath solution. […] For neuronal recording NaCl was replaced with K-gluconate (plus 1 mMATP, 0.2 mM GTP). Solutions were applied via a gravity-fed system. […] Voltage-dependent properties were measured as described in Matt and Ahern, J. Physiol. […] The baseline currents under control conditions were subtracted. For cell-attached experiments, peak amplitudes were measured from all-points histograms, and open probability was measured as NPo>750 ms. Defolliculated Xenopus laevis oocytes were injected with ≈10 ng of hTRPA1 (gift of Ardem Patapoutian, The Scripps Research Institute, La Jolla, Calif.).
Volatile General Anesthetics and Chemicals. Saturated stock solutions of volatile GAs were prepared in gas-tight bottles by dissolving excess anesthetic agents in bath solutions overnight. From these stock solutions fresh dilutions were made up every 40-60 min. Concentrations of GAs in the bath solutions were verified by using a modified head-space gas chromatography method. […] Alcohols with <6 carbons were dissolved directly into extracellular solution, and alcohols containing 6 carbons or more were dissolved in DMSO and then diluted into extracellular solutions that were sonicated for 20 min. All other drugs were prepared as stock solutions in DMSO or ethanol and diluted into physiological solution before experiments.

FC(F)OC(F)C(F)(F)F (stereo not shown) [desflurane]
1 MAC equivalent aqueous concentration (published conversion factor) [1]: 0.51 mM | TRPA1 single-channel conductance in presence of VGA (TRPA1 [2]): ≈ 80 pS | Increase in maximal open probability of TRPA1 (TRPA1 [2]; cell-attached patches): > 6 fold | V1/2 of TRPA1 open probability in presence of desflurane (TRPA1 [2]; cell-attached patches, shifted from 72.1 mV): 42.5 mV | Single TRPA1 channel activity (TRPA1 [2]): enhanced single-channel gating; also recorded: activate single TRPA1 channels | Effect on AITC-evoked currents (hTRPA1): markedly enhanced | Enhancement of proton-evoked currents compared with isoflurane and sevoflurane (TRPV1; VGAs 0.6 mM, pH 5.5): significantly more | Activation of mouse TRPA1 (mouse TRPA1): activates | Activation of TRPA1 currents by VGAs (TRPA1 [3]): robustly activated

FC(F)OC(Cl)C(F)(F)F (stereo not shown) [isoflurane]
1 MAC equivalent aqueous concentration (published conversion factor) [1]: 0.31 mM | TRPA1 single-channel conductance in presence of VGA (TRPA1 [2]): ≈ 60 pS | Single TRPA1 channel activity (TRPA1 [2]): enhanced single-channel gating; also recorded: activate single TRPA1 channels | Effect on AITC-evoked currents (hTRPA1): markedly enhanced | Temperature threshold of TRPV1 heat activation (TRPV1; 0.5 mM isoflurane): 43 °C | Temperature threshold of TRPV1 heat activation (TRPV1; 0.9 mM isoflurane): 40 °C | Enhancement of maximal proton-evoked current (TRPV1; isoflurane 0.9 mM): approximately 3 fold | Temperature threshold of TRPV1 heat activation after PDBu application (TRPV1; isoflurane 0.9 mM after PDBu, control 45.9±0.2): 32.8±0.8 °C | Enhancement of currents evoked by pH 5.5 solution (TRPV1; isoflurane 0.9 mM, n=4): approximately 10 fold | Maximal proton response as % of 10 μM capsaicin (TRPV1; isoflurane 0.9 mM, control 14.3%): 32.2% | Activation of TRPA1 after AITC treatment (TRPA1 [3]): failed to activate | Activation of TRPA1 currents by VGAs (TRPA1 [3]): produced inward currents; also recorded: robustly activated | TRPA1 response at high concentration (TRPA1 [3]; 2.7 mM, additional blocking mechanism): reduced | EC50 of TRPA1 activation expressed in MAC (TRPA1 [3]; HEK293 cells): 0.57 MAC | Hill coefficient of TRPA1 activation (TRPA1 [3]; HEK293 cells): 1.6±0.2 | EC50 (TRPA1 [3]; HEK293 cells, read-out: EC50 of TRPA1 activation): 180 ± 20 µM | Effect on TRPA1 when applied together with saturating octanol (TRPA1 [3]; isoflurane 0.9 mM + octanol 1.8 mM): negligible effects | Activation of TRPA1 at holding potential −50 mV (TRPA1 [3]; isoflurane 0.9 mM, octanol 1 mM): selectively activated | Concentration at peak of bimodal dose-response relationship (TRPA1 [3]; reduction at higher concentrations): ≈ 1 mM
